Test results taken from US7973128B2, “Immunogenic polypeptide composed of tumor antigen-derived optimized cryptic peptides, and uses thereof” (Vaxon Biotech, priority 2005, dated 2011).

How the values were obtained:
[1] = test system: HLA-A*0201 transgenic HHD mice; test: Tetramer-positive CD8 T cells in draining lymph nodes of vaccinated HHD mice; assay type: in vivo, mouse; details: for Responding mice (response to at least one peptide) / Frequency of strong responses (% of tetramer-positive CD8 cells at least twice the cutoff value; ++): HHD mice vaccinated with polypeptide; for Trispecific response: HHD mice, response to all three peptides
Method: HHD mice were injected subcutaneously with 100 μg of nonamer/decamer peptides, and with 240 μg of polypeptide emulsified in incomplete Freund's adjuvant (IFA) plus 150 μg of the I-A^b restricted HBVcore128 T-helper epitope. Eleven days later spleen cells (5×10^7 cells in 10 ml) from immunized mice were stimulated in vitro with peptide (10 μM) in RPMI 1640+10% FCS for five days. The CTL lines were established by weekly re-stimulation in vitro with irradiated spleen cells in the presence of diminishing peptide concentrations (1 to 0.1 μM) and 50 U/ml IL-2 (Proleukin, Chiron Corp., Emeryville, Calif.).
For tetramer labeling, cells from inguinal and para-aortic lymph nodes (LN) of immunized mice were stained with 15 μg/ml PE-coupled HLA-A2/TERT988Y, HLA-A2/MAGE-A248V9 and HLA-A2/HER-2/neu402Y tetramers (Proimmune, Oxford, UK) in the presence of an anti-Fc receptor antibody (clone 2.4 G2) in 20 μl of PBS, 2% FCS for 1 h at room temperature. The cells were washed once in PBS, 2% FCS and then stained with anti-CD44-FITC (clone 1M.178), anti-TCRβ-cychrome (clone H57) and anti-CD8α-APC (clone 53.6.7) (BD Biosciences, Le Pont de Claix, France) in 50 μl of PBS, 2% FCS for 30 min at 4° C. The cells were then washed once in PBS, 2% FCS and immediately analyzed in a FACSCalibur® flow cytometer (Becton Dickinson, San Jose, Calif., USA).
The simplest way to stimulate a polyspecific CTL response in vivo would be to inject a mixture of the relevant peptides. Therefore, the inventors examined whether HHD mice vaccinated with an equimolar mixture of peptides HER-2/neu402Y, TERT988Y and MAGE-A248V9 developed a polyspecific response in vivo. The immune response was evaluated by measuring the frequency of peptide-specific CD8 T cells in the lymph nodes draining the injection site seven days after vaccination, using specific tetramers. Before use, each tetramer was validated with peptide-specific CTL lines as previously described (Miconnet et al., 2002). A positive response was recorded when the percentage of tetramer-positive CD8 cells was higher than the mean percentage+3 standard deviations of tetramer-positive CD8 cells in six naive mice (0.16% for MAGE-A248V9, 0.13% for HER-2/neu402Y and 0.16% for TERT988Y). Eight mice were vaccinated with the peptide mixture in two independent experiments (Table 2). […] Three mice responded to one peptide and five responded to two peptides. Responses to MAGE-A248V9 were more frequent (6/8 mice) than responses to HER-2/neu402Y (4/8 mice) or TERT988Y (3/8 mice).
HHD mice were vaccinated with each polypeptide, and CD8 T cells specific for the individual peptides were identified in draining lymph nodes by using specific tetramers. All six polypeptide variants were immunogenic in HHD mice (i.e., they generated a response to at least one peptide) but the frequency of responding mice varied from one variant to the other. The most immunogenic variants were Poly-1, Poly-3 and Poly-6, with 100%, 87% and 83% of responding mice, respectively (Table 6). Poly-2, Poly-4 and Poly-5 induced a response in respectively 57%, 62% and 62% of vaccinated mice. The frequency of strong responses (% of tetramer-positive CD8 cells at least twice the cutoff value; designated ++) was highest with Poly-6 (41% of all responses), Poly-3 (30% of all responses) and Poly-1 (25% of all responses). The responses were directed against MAGE-A248V9 in 74% of responding mice, HER-2/neu402Y in 71% and TERT988Y in 55%.

[2] = test system: PBMC from healthy HLA-A*0201 donors; test: In vitro stimulation of healthy donor PBMC, intracellular IFNγ labeling of CD8 cells; assay type: cell-based, human; details: for Donors with responses to all three peptides (trispecific): healthy donor PBMC, IFNγ-producing CD8 cells
Method: PBMC were collected by leukapheresis from healthy HLA-A*0201 volunteers. Dendritic cells (DC) were produced from adherent cells (2×10^6 cells/ml) cultured for seven days with 500 IU/ml GM-CSF (Leucomax®, Schering-Plough, Kenilworth, N.J.) and 500 IU/ml IL-4 (R&D Systems, Minneapolis, Minn.) in complete medium (RPMI 1640 supplemented with 10% heat-inactivated human AB serum, […] and antibiotics). On day 7, DC were pulsed with 10 μM peptides or polypeptides for 2 h; the maturation agents Poly I:C (Sigma, Oakville, Canada) at 100 ng/ml, and anti-CD40 mAb (clone G28-5, ATCC, Manassas, Va.) at 2 μg/ml were added to the culture and DCs were further incubated at 37° C. overnight or for up to 48 hours. Mature DC were then irradiated (3500 rads). CD8+ cells were purified by positive selection with CD8 MicroBeads (Miltenyi Biotec, Auburn, Calif.) according to the manufacturer's instructions. CD8^+ cells (2×10^5)+CD8^− cells (6×10^4) were stimulated with 2×10^4 peptide-pulsed DC in complete culture medium supplemented with 1000 IU/ml IL-6 and 5 IU/ml IL-12 (R&D Systems, Minneapolis, Minn.) in round-bottomed 96-well plates. From day 7, cultures were restimulated weekly with peptide-loaded DC in the presence of 20 IU/ml IL-2 (Proleukin, Chiron Corp., Emeryville, Calif.) and 10 ng/ml IL-7 (R&D Systems, Minneapolis, Minn.). After the third restimulation, CD8 cells were tested in an IFN-γ release assay.
T cells (10^5) were incubated with 2×10^5 T2 cells loaded with stimulating peptide in the presence of 20 μg/ml Brefeldin-A (Sigma, Oakville, Canada). Six hours later they were washed, stained with r-phycoerythrin-conjugated anti-CD8 antibody (Caltag Laboratories, Burlingame, Calif.) in PBS for 25 min at 4° C., washed again, and fixed with 4% PFA. The cells were then permeabilized with PBS, 0.5% BSA, 0.2% saponin (Sigma, Oakville, Canada), and labeled with an allophycocyanin-conjugated anti-IFNγ mAb (PharMingen, Mississauga, Canada) for 25 min at 4° C. before analysis with a FACSCalibur™ flow cytometer (Becton Dickinson, Mountain View, Calif.).
The inability of the peptide mixture to stimulate a trispecific CD8 T cell response was confirmed in vitro with human cells. […] PBMC activation was evaluated by measuring the percentage of IFNγ-producing CD8 cells by means of intracellular labeling. A positive response was recorded when the percentage of activated PBMC was at least twice that obtained with an irrelevant peptide. […]
In vitro immune responses were assessed by measuring the percentage of CD8 cells producing IFNγ after specific peptide activation. […]

Substance | Responding mice (response to at least one peptide) ([1]; tetramers) [%] | Trispecific response [1] | Frequency of strong responses (% of tetramer-positive CD8 cells at least twice the cutoff value; ++) [1] | Donors with responses to all three peptides (trispecific) [2] | Immunogenicity in HHD mice, in words ([1]; response to at least one peptide) | Mice responding simultaneously to all three peptides (trispecific response), in words ([1]; vaccinated HHD mice, tetramers) | Strength of responses in human donor cells, in words ([2]; against MAGE-A248V9 in donors #D7017 and #D7225, against HER-2/neu402Y in donor #D7744) | Peptides the donor's CD8 cells responded to ([2]; donor #D7225)
YLEEITGYL-YLEYRQVPV-YLQVNSLQTV (SEQ ID No: 6) (YLEEITGYLYLEYRQVPVYLQVNSLQTV; Poly-4) [polypeptide variant, arrangement N-M-T] | 62 | 37.5 % of vaccinated mice | – | – | – | – | – | –
YLEEITGYL-YLQVNSLQTV-YLEYRQVPV (SEQ ID No: 5) (YLEEITGYLYLQVNSLQTVYLEYRQVPV; Poly-3) [polypeptide variant, arrangement N-T-M] | 87 | 12.5 % of vaccinated mice | 30 % of all responses | – | – | – | – | –
YLEYRQVPV-YLEEITGYL-YLQVNSLQTV (SEQ ID No: 3) (YLEYRQVPVYLEEITGYLYLQVNSLQTV; Poly-1) [polypeptide variant of MAGE-A248V9, HER-2/neu402Y and TERT988Y, arrangement M-N-T] | 100 | 28.5 % of vaccinated mice | 25 % of all responses | 25 % of donors | – | – | – | –
YLEYRQVPV-YLQVNSLQTV-YLEEITGYL (SEQ ID No: 4) (YLEYRQVPVYLQVNSLQTVYLEEITGYL; Poly-2) [polypeptide variant, arrangement M-T-N] | 57 | – | – | – | very weakly immunogenic | did not induce a trispecific response in any mice | – | –
YLQVNSLQTV-YLEEITGYL-YLEYRQVPV (SEQ ID No: 7) (YLQVNSLQTVYLEEITGYLYLEYRQVPV; Poly-5) [polypeptide variant, arrangement T-N-M] | 62 | 25 % of vaccinated mice | – | – | – | – | – | –
YLQVNSLQTV-YLEYRQVPV-YLEEITGYL (SEQ ID No: 2) (YLQVNSLQTVYLEYRQVPVYLEEITGYL; Poly-6) [polypeptide variant, arrangement T-M-N] | 83 | 67 % of vaccinated mice | 41 % of all responses | 80 % of donors | – | – | strongest responses | all three peptides
